Experiments:
[1] = molecular target: T1, Recombinant human integrin αvβ3 (Homo sapiens, UniProt P05106+P06756); test: Solid Phase Receptor Assay for αvβ3 Function; conditions: binding to vitronectin-coated plate; read-out: αvβ3 SPRA IC50
T1 construct: purchased R&D Systems 3050-AV
Procedure: Solid Phase Receptor Assay for αvβ3 Function.
Wells were washed 3 times with 150 μL TBS+ and 150 μL of blocking buffer (TBS+ with 1% bovine serum albumin, Sigma A7906) were added. The plate was incubated for 1 hr at 37° C. and then washed 3× with TBS+ buffer. […] Compounds were diluted 1:100 into the integrin solution and then 50 μL added to empty wells of the washed vitronectin-coated plate according to a standard template with each sample repeated in triplicate. After incubation for two hours at room temperature, the plate was washed 3× with 150 μL of TBS+ buffer. To each well, 50 μL of biotinylated anti-αv antibody (R&D Systems, BAF1219) at 0.5 μg/mL in TBS+/0.1% BSA were added and the plate covered and incubated for 1 hr at room temperature. After washing the plate 3× with 150 μL of TBS+ buffer, 50 μL of streptavidin-conjugated horseradish peroxidase (R&D Systems, DY998) diluted in TBS+ blocking buffer were added to the wells and the plate incubated for 20 min at room temperature. The plate was washed 3× with TBS+ buffer followed by 50 μL of TMB substrate (Sigma, T4444) added to each well and the plate was incubated for 20 min at room temperature. The reaction was optionally stopped with 25 μL of Stop Solution (Sigma, S5689). Plates were read by colorimetric detection at 650 nm wavelength using a Tecan S afire II plate reader.

[2] = molecular target: T2, Recombinant human integrin αvβ8 (Homo sapiens, UniProt P06756+P26012); test: Solid Phase Receptor Assay for αvβ8 Function; conditions: binding to LAP-coated plate; read-out: αvβ8 SPRA IC50
T2 construct: purchased R&D Systems 4135-AV
Procedure: Solid Phase Receptor Assay for αvβ8 Function.
Wells were washed 3 times with 150 μL TBS+ and 150 μL of blocking buffer (TBS+ with 1% bovine serum albumin, Sigma A7906) were added. The plate was incubated for 1 hr at 37° C. and then washed 3× with TBS+. […] Compounds were diluted 1:100 into the integrin solution and 50 μL added to empty wells of the washed LAP-coated plate according to a standard template with each sample repeated in triplicate. After incubation for two hours at room temperature, the plate was washed 3× with 150 μL of TBS+. To each well, 50 μL of biotinylated anti-αv antibody (R&D Systems, BAF1219) at 1 μg/mL in TBS+/0.1% BSA were added and the plate was covered and incubated for 1 hr at room temperature. After washing the plate 3× with 150 μL of TBS+ buffer, 50 μL of streptavidin-conjugated horseradish peroxidase (R&D Systems, DY998) diluted in TBS+ blocking buffer were added to the wells and the plate incubated for 20 min at room temperature. The plate was washed 3× with TBS+ followed by 50 μL of TMB substrate (Sigma T4444) added to each well and the plate incubated for 20 min at room temperature. The reaction was optionally stopped with 25 μL of Stop Solution (Sigma S5689). Plates were read by colorimetric detection at 650 nm wavelength using a Tecan Safire II plate reader.

[3] = molecular target: T3, Recombinant human integrin α5β1 (Homo sapiens, UniProt P05556+P08648); test: Solid Phase Receptor Assay for α5β1 Function; conditions: binding to fibronectin-coated plate; read-out: α5β1 SPRA IC50
T3 construct: purchased R&D Systems 3230-A5
Procedure: Solid Phase Receptor Assay for α5β1 Function.
Wells were washed 3 times with 150 μL TBS+ and 150 μl of blocking buffer (TBS+ with 1% bovine serum albumin, Sigma A7906) were added. The plate was incubated for 1 hr at 37° C. and then washed 3× with TBS+ buffer. […] Compounds were diluted 1:100 into the integrin solution and then 50 μL added to empty wells of the washed fibronectin-coated plate according to a standard template with each sample repeated in triplicate. After incubation for two hours at room temperature, the plate was washed 3× with 150 μL of TBS+ buffer. To each well, 50 μL of biotinylated anti-α5 antibody (R&D Systems, BAF1864) at 0.5 ug/mL in TBS+/0.1% BSA were added and the plate covered and incubated for 1 hr at room temperature. After washing the plate 3× with 150 μL of TBS+ buffer, 50 μL of streptavidin-conjugated horseradish peroxidase (R&D Systems, DY998) diluted in TBS+ blocking buffer were added to the wells and the plate incubated for 20 min at room temperature. The plate was washed 3× with TBS+ buffer followed by 50 μL of room temperature TMB substrate (Sigma, T444) added to each well and the plate incubated for 20 min at room temperature. The reaction was optionally stopped with 25 μL of Stop Solution (Sigma S5689). Plates were read by colorimetric detection at 650 nm wavelength using a Tecan Safire II plate reader.

[4] = molecular target: T4, Recombinant human integrin αvβ1 (Homo sapiens, UniProt P05556+P06756); test: Solid Phase Receptor Assay for αvβ1 Function; conditions: binding to fibronectin-coated plate; read-out: αvβ1 SPRA IC50
T4 construct: purchased R&D Systems 6579-AV
Procedure: Solid Phase Receptor Assay for αvβ1 Function.
Wells were washed 3 times with 150 μl TBS+ and 150 μL of blocking buffer (TBS+ with 1% bovine serum albumin, Sigma A7906) were added. The plate was incubated for 1 hr at 37° C. and then washed 3× with TBS+ buffer. […] Compounds were diluted 1:100 into the integrin solution and 50 μL added to empty wells of the washed fibronectin-coated plate according to a standard template with each sample repeated in triplicate. After incubation for two hours at room temperature, the plate was washed 3× with 150 μL of TBS+ buffer. To each well, 50 μL of biotinylated anti-αv antibody (R&D Systems, BAF1219) at 1 μg/mL in TBS+/0.1% BSA were added and the plate covered and incubated for 1 hr at room temperature. After washing the plate 3× with 150 μL of TBS+ buffer, 50 μL of streptavidin-conjugated horseradish peroxidase (R&D Systems, DY998) diluted in TBS+ blocking buffer were added to the wells and the plate incubated for 20 min at room temperature. The plate was washed 3× with TBS+ buffer followed by 50 μL of TMB substrate (Sigma, T4444) added to each well and the plate incubated for 20 min at room temperature. The reaction was optionally stopped with 25 μL of Stop Solution (Sigma S5689). Plates were read by colorimetric detection at 650 nm wavelength using a Tecan Safire II plate reader.

T2 sequence (P06756 31-992 limits assumed): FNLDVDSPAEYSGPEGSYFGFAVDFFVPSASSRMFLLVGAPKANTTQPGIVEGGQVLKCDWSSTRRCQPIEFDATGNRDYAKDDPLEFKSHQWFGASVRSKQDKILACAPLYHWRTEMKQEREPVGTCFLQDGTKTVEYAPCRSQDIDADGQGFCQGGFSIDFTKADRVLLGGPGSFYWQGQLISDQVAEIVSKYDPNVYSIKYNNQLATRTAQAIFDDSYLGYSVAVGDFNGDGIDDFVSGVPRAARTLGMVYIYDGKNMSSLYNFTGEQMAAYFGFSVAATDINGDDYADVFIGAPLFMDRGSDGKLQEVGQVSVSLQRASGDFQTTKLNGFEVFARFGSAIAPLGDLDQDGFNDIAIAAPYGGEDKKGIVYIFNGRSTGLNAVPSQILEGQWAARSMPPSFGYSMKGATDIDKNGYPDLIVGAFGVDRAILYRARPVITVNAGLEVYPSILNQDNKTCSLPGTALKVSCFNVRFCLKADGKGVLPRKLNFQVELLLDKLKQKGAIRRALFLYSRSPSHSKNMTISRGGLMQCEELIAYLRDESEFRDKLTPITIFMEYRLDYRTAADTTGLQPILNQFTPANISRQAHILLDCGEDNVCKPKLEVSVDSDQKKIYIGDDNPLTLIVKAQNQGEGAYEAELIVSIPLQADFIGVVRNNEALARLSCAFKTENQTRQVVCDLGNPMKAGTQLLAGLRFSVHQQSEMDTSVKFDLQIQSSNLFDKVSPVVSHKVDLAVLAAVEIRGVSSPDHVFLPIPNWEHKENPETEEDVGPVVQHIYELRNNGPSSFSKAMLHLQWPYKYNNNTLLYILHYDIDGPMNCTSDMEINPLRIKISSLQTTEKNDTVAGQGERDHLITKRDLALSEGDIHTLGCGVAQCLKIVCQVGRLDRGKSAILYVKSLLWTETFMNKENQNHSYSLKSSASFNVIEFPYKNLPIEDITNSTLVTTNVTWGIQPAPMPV
T2 sequence (P26012 43-684 limits assumed): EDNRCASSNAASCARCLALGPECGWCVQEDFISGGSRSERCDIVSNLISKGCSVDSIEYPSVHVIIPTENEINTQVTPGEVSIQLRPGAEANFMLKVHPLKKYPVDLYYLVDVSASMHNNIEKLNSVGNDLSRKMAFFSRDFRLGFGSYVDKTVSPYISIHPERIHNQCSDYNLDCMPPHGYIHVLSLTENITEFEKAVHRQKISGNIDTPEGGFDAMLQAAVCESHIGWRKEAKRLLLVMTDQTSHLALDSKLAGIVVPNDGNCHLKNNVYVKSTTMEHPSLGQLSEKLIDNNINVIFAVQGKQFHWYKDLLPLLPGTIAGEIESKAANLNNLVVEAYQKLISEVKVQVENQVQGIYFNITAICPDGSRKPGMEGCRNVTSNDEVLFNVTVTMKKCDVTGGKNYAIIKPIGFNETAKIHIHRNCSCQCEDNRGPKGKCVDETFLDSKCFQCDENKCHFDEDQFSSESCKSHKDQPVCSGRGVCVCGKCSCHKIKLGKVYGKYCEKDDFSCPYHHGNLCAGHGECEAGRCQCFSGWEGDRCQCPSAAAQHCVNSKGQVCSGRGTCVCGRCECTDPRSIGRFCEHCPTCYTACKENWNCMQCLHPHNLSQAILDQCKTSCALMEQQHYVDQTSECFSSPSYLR
T1 sequence (P06756 31-992 limits assumed): as the sequence (P06756 31-992 limits assumed) above
T1 sequence (P05106 27-718 limits assumed): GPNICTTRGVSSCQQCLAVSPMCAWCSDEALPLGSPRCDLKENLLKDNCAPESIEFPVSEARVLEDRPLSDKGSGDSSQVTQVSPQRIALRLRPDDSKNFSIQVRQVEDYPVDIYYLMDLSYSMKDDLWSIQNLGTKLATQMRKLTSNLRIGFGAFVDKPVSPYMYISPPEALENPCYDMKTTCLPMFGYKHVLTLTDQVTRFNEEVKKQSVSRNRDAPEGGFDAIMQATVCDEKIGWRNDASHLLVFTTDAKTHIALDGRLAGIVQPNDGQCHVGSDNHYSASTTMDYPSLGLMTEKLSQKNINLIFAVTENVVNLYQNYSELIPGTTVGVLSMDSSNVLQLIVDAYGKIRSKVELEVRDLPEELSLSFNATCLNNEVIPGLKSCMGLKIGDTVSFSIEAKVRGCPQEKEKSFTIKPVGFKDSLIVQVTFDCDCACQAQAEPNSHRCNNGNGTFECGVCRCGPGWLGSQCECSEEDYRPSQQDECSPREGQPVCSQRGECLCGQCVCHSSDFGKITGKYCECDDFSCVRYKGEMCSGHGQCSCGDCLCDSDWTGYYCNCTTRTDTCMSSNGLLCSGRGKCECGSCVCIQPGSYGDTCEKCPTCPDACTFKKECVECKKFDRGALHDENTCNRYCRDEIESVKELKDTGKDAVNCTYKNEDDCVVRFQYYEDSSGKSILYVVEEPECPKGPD
T4 sequence (P06756 31-992 limits assumed): as the sequence (P06756 31-992 limits assumed) above
T4 sequence (P05556 21-728 limits assumed): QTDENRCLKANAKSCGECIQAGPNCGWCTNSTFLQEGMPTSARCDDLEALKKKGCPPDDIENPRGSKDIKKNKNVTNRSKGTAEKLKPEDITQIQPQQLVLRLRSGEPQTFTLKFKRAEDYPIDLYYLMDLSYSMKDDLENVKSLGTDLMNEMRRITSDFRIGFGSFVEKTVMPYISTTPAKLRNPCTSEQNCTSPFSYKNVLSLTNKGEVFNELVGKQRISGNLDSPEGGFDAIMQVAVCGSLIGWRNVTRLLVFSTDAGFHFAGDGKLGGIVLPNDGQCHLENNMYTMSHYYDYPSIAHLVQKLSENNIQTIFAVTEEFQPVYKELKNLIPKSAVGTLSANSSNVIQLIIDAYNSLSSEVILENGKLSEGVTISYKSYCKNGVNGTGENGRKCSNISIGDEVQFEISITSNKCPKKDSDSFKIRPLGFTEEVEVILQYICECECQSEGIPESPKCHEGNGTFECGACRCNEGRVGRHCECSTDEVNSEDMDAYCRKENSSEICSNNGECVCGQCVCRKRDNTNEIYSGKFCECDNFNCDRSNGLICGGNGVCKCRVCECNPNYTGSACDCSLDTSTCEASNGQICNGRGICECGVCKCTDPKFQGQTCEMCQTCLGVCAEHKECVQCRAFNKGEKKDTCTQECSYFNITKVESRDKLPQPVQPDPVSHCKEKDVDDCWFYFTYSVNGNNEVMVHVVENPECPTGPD
T3 sequence (P08648 42-995 limits assumed): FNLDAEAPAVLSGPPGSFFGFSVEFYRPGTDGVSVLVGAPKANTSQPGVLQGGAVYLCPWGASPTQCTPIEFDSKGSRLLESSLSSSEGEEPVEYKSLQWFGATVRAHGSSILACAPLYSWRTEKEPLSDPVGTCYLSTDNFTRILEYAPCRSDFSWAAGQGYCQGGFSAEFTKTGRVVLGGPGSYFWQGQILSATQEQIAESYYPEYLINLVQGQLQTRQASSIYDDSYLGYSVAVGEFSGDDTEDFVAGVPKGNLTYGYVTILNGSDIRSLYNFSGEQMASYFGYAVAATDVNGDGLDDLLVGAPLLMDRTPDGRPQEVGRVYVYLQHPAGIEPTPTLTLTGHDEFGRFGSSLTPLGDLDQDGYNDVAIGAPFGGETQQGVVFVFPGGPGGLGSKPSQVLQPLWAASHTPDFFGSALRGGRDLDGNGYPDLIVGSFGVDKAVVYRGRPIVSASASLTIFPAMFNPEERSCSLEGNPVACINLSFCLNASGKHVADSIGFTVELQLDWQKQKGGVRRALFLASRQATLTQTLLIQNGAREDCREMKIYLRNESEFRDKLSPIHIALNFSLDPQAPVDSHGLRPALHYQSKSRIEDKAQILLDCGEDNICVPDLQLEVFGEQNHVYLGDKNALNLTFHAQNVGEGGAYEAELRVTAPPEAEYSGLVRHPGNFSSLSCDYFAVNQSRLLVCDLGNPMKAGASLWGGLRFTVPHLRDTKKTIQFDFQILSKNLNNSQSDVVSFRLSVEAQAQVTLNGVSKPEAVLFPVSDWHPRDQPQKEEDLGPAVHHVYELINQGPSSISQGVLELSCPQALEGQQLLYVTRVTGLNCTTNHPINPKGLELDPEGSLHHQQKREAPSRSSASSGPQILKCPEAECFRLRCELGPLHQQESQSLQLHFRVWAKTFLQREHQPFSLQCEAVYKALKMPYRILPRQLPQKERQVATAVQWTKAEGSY
T3 sequence (P05556 21-728 limits assumed): as the sequence (P05556 21-728 limits assumed) above

Compound	IC50 [1]	IC50 [2]	IC50 [3]	IC50 [4]
CC(C)(C#N)c1cc(Br)cc([C@H](CC(=O)O)NC(=O)CNC(=O)c2cc(O)cc(NC3=NCC(O)CN3)c2)c1 (stereo partly drawn) [Example 11, (3S)-3-(3-bromo-5-(2-cyanopropan-2-yl)phenyl)-3-(2-(3-hydroxy-5-((5-hydroxy-1,4,5,6-tetrahydropyrimidin-2-yl)amino)benzamido)acetamido)propanoic acid]	3.4 nM	0.2 nM	0.3 nM	2.8 nM
CC(C)(O)c1cc(Cl)cc([C@H](CC(=O)O)NC(=O)CNC(=O)c2cc(O)cc(NC3=NCC(O)CN3)c2)c1 (stereo partly drawn) [Example 4, (3S)-3-(3-chloro-5-(2-hydroxypropan-2-yl)phenyl)-3-(2-(3-hydroxy-5-((5-hydroxy-1,4,5,6-tetrahydropyrimidin-2-yl)amino)benzamido)acetamido)propanoic acid]	2.3 nM	0.6 nM	0.7 nM	1.7 nM
CC(C)(C)c1cc(Br)cc([C@H](CC(=O)O)NC(=O)CNC(=O)c2cccc(NC(=N)N)c2)c1 [Example 5, (S)-3-(3-bromo-5-(tert-butyl)phenyl)-3-(2-(3-guanidinobenzamido)acetamido) propanoic acid]	2.6 nM	0.2 nM	0.6 nM	3.2 nM
CC(C)(C)c1cc(Br)cc([C@H](CC(=O)O)NC(=O)CNC(=O)c2cncc(NC(=N)N)c2)c1 [Example 6, (S)-3-(3-bromo-5-(tert-butyl)phenyl)-3-(2-(5-guanidinonicotinamido)acetamido) propanoic acid]	3.5 nM	0.3 nM	1 nM	4.7 nM
CC(C)(C)c1cc(Br)cc([C@H](CC(=O)O)NC(=O)CNC(=O)c2cc(O)cc(NC3=NCC(O)CN3)c2)c1O (stereo partly drawn) [Example 2, (3S)-3-(5-bromo-3-(tert-butyl)-2-hydroxyphenyl)-3-(2-(3-hydroxy-5-((5-hydroxy-1,4,5,6-tetrahydropyrimidin-2-yl)amino)benzamido)acetamido)propanoic acid]	1.8 nM	0.1 nM	0.5 nM	2.2 nM
CC(C)(O)c1cc([C@H](CC(=O)O)NC(=O)CNC(=O)c2cc(O)cc(NC3=NCC(O)CN3)c2)cc(C(F)(F)F)c1 (stereo partly drawn) [Example 13, (3S)-3-(2-(3-hydroxy-5-((5-hydroxy-1,4,5,6-tetrahydropyrimidin-2-yl)amino)benzamido)acetamido)-3-(3-(2-hydroxypropan-2-yl)-5-(trifluoromethyl)phenyl)propanoic acid]	1.8 nM	0.6 nM	0.9 nM	4 nM
CC(C)(C)c1cc(C#N)cc([C@H](CC(=O)O)NC(=O)CNC(=O)c2cc(O)cc(NC3=NCC(O)CN3)c2)c1 (stereo partly drawn) [Example 12, (3S)-3-(3-(tert-butyl)-5-cyanophenyl)-3-(2-(3-hydroxy-5-((5-hydroxy-1,4,5,6-tetrahydro-pyrimidin-2-yl)amino)benzamido)acetamido)propanoic acid]	2.8 nM	0.2 nM	0.3 nM	2 nM
CC(C)(C)c1cc(-c2cccnc2)cc([C@H](CC(=O)O)NC(=O)CNC(=O)c2cc(O)cc(NC3=NCC(O)CN3)c2)c1 (stereo partly drawn) [Example 18, (3S)-3-(3-(tert-butyl)-5-(pyridin-3-yl)phenyl)-3-(2-(3-hydroxy-5-((5-hydroxy-1,4,5,6-tetrahydropyrimidin-2-yl)amino)benzamido)acetamido)propanoic acid]	14.5 nM	0.3 nM	0.4 nM	3.4 nM
O=C(O)C[C@H](NC(=O)CNC(=O)c1cc(O)cc(NC2=NCC(O)CN2)c1)c1cc(Cl)cc(C2(CO)CCOCC2)c1 (stereo partly drawn) [Example 17, (3S)-3-(3-chloro-5-(4-(hydroxymethyl)tetrahydro-2H-pyran-4-yl)phenyl)-3-(2-(3-hydroxy-5-((5-hydroxy-1,4,5,6-tetrahydropyrimidin-2-yl)amino)benzamido)acetamido)propanoic acid]	4 nM	0.4 nM	0.4 nM	3 nM
CC(C)(C)c1cc(Br)cc([C@H](CC(=O)O)NC(=O)CNC(=O)c2cc(O)cc(NC3=NCCN3)c2)c1 [Example 9, (S)-3-(3-bromo-5-(tert-butyl)phenyl)-3-(2-(3-((4,5-dihydro-1H-imidazol-2-yl)amino)-5-hydroxybenzamido)acetamido)propanoic acid]	2.9 nM	0.1 nM	0.5 nM	2.4 nM
CC(C)(O)c1cc(Br)cc([C@H](CC(=O)O)NC(=O)CNC(=O)c2cc(O)cc(NC3=NCC(O)CN3)c2)c1 (stereo partly drawn) [Example 3, (3S)-3-(3-bromo-5-(2-hydroxypropan-2-yl)phenyl)-3-(2-(3-hydroxy-5-((5-hydroxy-1,4,5,6-tetrahydropyrimidin-2-yl)amino)benzamido)acetamido)propanoic acid]	2 nM	0.4 nM	0.3 nM	2.2 nM
CC(C)(CO)c1cc(Cl)cc([C@H](CC(=O)O)NC(=O)CNC(=O)c2cc(O)cc(NC3=NCC(O)CN3)c2)c1 (stereo partly drawn) [Example 15, (3S)-3-(3-chloro-5-(1-hydroxy-2-methylpropan-2-yl)phenyl)-3-(2-(3-hydroxy-5-((5-hydroxy-1,4,5,6-tetrahydropyrimidin-2-yl)amino)benzamido)acetamido)propanoic acid]	3.3 nM	0.3 nM	0.4 nM	2.9 nM
CC(C)(C)c1cc([C@H](CC(=O)O)NC(=O)CNC(=O)c2cncc(NC(=N)N)c2)cc(C(C)(C)C)c1 [Example 10, (S)-3-(3,5-di-tert-butylphenyl)-3-(2-(5-guanidinonicotinamido)acetamido)propanoic acid]	172 nM	0.2 nM	0.5 nM	2.1 nM

— patent publication US9085606B2, “Beta amino acid derivatives as integrin antagonists” (Saint Louis University, priority 2012, dated 2015)
